Reference: publication PMC11428593 (Antibiotics, 2024)
Values joined by “and” are separate entries in the source; they are usually repeats but may differ in a detail not shown here. Identical values can stand only once. Like-named read-outs stand apart in the source and are kept apart here.

What was measured:
[1] = tested on: 3T3 mouse embryonic fibroblast cells; experiment: MTT cytotoxicity assay; type: cell-based; details: 3T3 cells; for IC50: Mus musculus, NIH3T3, 24 h
Description: To gauge the potential for toxicity of the new alkyl pyridinol derivates, we tested their cytotoxicity by examining the metabolic activity of 3T3 mouse embryonic fibroblast cells using the tetrazolium dye 3-(4,5-dimethylthiazol-2-yl)-2,5-diphenyltetrazolium bromide (MTT), as has been done before. The dye is reduced by NAD(P)H-dependent cellular oxidoreductases, resulting in the formation of the insoluble formazan with its purple color, which can be quantified. 3T3 cells were treated with different concentrations of the alkyl pyridinol compounds for 24 h, and the absorbance of the MTT-treated cell culture supernatant was measured at 540 nm. Absorbances were plotted against concentrations of the compound added (Supplementary Figure S2), and IC50, the concentration of a drug required for 50% metabolic inhibition, was calculated for each compound. […] However, the concentrations at which these compounds compromise 3T3 mouse embryonic fibroblast cells are well above their reported MICs (Table 2).
3T3 cells (male mouse embryonic fibroblast Flp-In cells, Thermo Fisher, Waltham, MA, USA) were cultured in D-MEM (Corning, Corning, NY, USA) supplemented with 10% Fetal Clone III (Cytiva Hyclone, Bengaluru, India) and L-Glutamine (Alfa Aesar, Haverhill, MA, USA) at 37 °C and 5% CO2. To determine the compound’s toxicity, 3T3 cells were seeded at a density of 10,000 cells/well into 96-well plates (Fisherbrand, Waltham, MA, USA) and cultured as described above. After 16 h, the culture medium was extracted and replaced by supplemented D-MEM without phenol red (Corning, Glendale, AZ, USA) containing individual compounds in the indicated concentrations. Furthermore, 1% sodium dodecyl sulfate (SDS) and 2% dimethyl sulfoxide (DMSO), equivalent to the volume of the DMSO in the highest compound concentration, were used as the cell death and vehicle control, respectively. Moreover, 16 h after compound treatment, the culture medium was extracted again and replaced by fresh supplemented D-MEM without phenol red. Subsequently, 10 µL of 5 mg/mL MTT reagent (Alfa Aesar, Haverhill, MA, USA), dissolved in DMSO, was added to each well, and the cells were incubated for 2 h at 37 °C and 5% CO2. Next, 85 µL of the culture supernatant was removed from each well, mixed with 50 µL of DMSO, and incubated in an optical grade 96-well plate (Fisherbrand, Waltham, MA, USA) in a shaking incubator at 37 °C and 250 rpm. The absorbance of the MTT-treated cell culture supernatant was measured at 540 nm in an ELx808 plate reader (Biotek, Winooski, VT, USA).

[2] = tested on: S. aureus strain USA300LAC; experiment: Fluorescence microscopy (DAPI/Nile Red) of membrane deformation; type: cell-based, Staphylococcus aureus
Text: Given the high lipophilic nature and membrane-compromising effects of JC-01-074, we wondered about the possibility that the alkyl chain of JC-01-074 could be incorporated into the phospholipid bilayer, thereby destabilizing the uniform packing of the membrane phospholipids and potentially resulting in “bleb formation”, as this had been reported before. To test this idea, we cultivated the S. aureus strain USA300LAC to the mid-log phase and treated the cells with the indicated concentrations of JC-01-074 and daptomycin (as a positive control), respectively. Samples were collected at 15 and 60 mins of treatment, washed twice, and resuspended in fresh PBS. Cells were then stained with 4′,6-diamidino-2-phenylindole (DAPI) and Nile Red for 10 min, respectively. DAPI is a nucleic acid stain that binds to DNA, while Nile Red is commonly used as an inner membrane stain to quantify lipids. The cells were then mounted onto a glass slide with 1% agarose and imaged at 63× magnification via inverted confocal laser scanning microscopy. […] To rule out the possibility that these blebs were transiently formed, we further imaged the cells exposed to JC-01-074 for 60 min. […] The smaller blebs formed may have extended over the incubation time, resulting in their fusion into large blebs.
Figure 5 JC-01-074 treatment rapidly induces deformations in the S. aureus plasma membrane as indicated by the white arrows. […] Cells were collected at the indicated time points and stained with DAPI (5 µg/mL) and Nile Red (5 µg/mL) for 10 min, following which cells were imaged on 1% agarose pads. Images are representatives of three biological replicates. Scale bar = 1.25 µm.
The overnight USA300LAC cultures were diluted into the TSB media to an O.D.600nm = 0.01 and incubated under shaking conditions at 37 °C until the mid-log phase (O.D.600nm = 0.3) was reached. […] The cells were then imaged on 1% agarose gel pads and via fluorescence microscopy using a Leica SP8 confocal microscope. […] Fluorescence was detected between the wavelengths of 500–560 nm, with an 8×- line averaging.

[3] = 24 hours, one value per biological replicate, read-out: IC50 of single biological replicates (Figure S2)
[4] = 24 h treatment, mean ± S.D., read-out: IC50

SMILES: CCCCCCCCCC#Cc1cncc(O)c1 [JC-01-072]
- IC50 of single biological replicates (Figure S2) ([1]; 24 hours, one value per biological replicate, listed as JC-01-72): 41.1 µg/ml and 27.6 µg/ml and 35 µg/ml
- IC50 [1, 3]: 47.1 µg/mL
- IC50 [1, 4]: 153 ± 33.8 µM

SMILES: CCCCCCCCCC#Cc1cccc(O)n1 [JC-01-074]
- membrane morphology after 60 min ([2]; 0.5× and 1× MIC, 60 min, USA300LAC): formation of aberrant membrane blebs
- lowest concentration at which bleb formation was observed ([2]; USA300LAC plasma membrane, 0.5× MIC): 8 µg/mL
- earliest time at which bleb formation was observed ([2]; USA300LAC, after addition of compound): 15 min
- IC50 of single biological replicates (Figure S2) ([1]; 24 hours, one value per biological replicate, listed as JC-01-74): 27.1 µg/ml and 26.7 µg/ml
- IC50 [1, 3]: 22.9 µg/mL
- IC50 [1, 4]: 104 ± 9.4 µM
